Entries after “also recorded” stand apart in the source; their conditions may differ.
Tests used:
[1] = Toxicity in PyMT tumor-bearing FVB mice (body weight, ALT/AST, blood cell counts, small intestine); type: in vivo; conditions: 15 mg/kg i.v.
Experimental: FIG. 12D, Body weight of the mice in experiment from FIG. 5B was measured. Vehicle, n=10 mice; C26-A6, n=12 mice.
FIG. 12E, Serum from mice in experiment in FIG. 5B were collected for ALT and AST activity measurement following the standard protocol (Sigma). Three FVB females treated with 200 μl of 8% CCl4 in corn oil for 2 days served as positive control. Data represent mean±SEM. n=5 mice per group. Significance determined by one-way ANOVA analysis with Dunnett's test for multiple comparisons.
FIG. 12F, Blood samples were drawn from the heart of mice in experiment FIG. 5B, and blood cell counts were performed with the Sysemx XN-3000 Hematology System (Sysmex America, Inc.) Data represent mean±SEM. Vehicle, n=6 mice; C26-A6, n=5 mice. Significance determined by two tailed Student's t-test.
FIG. 12G, Small intestine samples were obtained from mice in experiment from FIG. 5B. H&E and Alcian blue staining was performed on processed, sliced samples. Scale bar: 200 μm.
FIG. 12H, Quantification of Alcian blue staining results from (FIG. 12G). Data represent mean±SEM. n=12 fields from 5 mice in each group. Significance determined by two tailed Student's t-test.

4TO7 lung metastases = assay: Established 4TO7 lung macrometastases; type: in vivo, Balb/C females
Experimental: For FIGS. 7A-7D, 2 k 4TO7 cells were injected into Balb/C females. 2 weeks after the injections, the mice were randomized based on lung metastasis that indicated by BLI, and were divided into four groups followed by vehicle, paclitaxel (Pac), and C26-A6 treatment alone or in combination. For Pac, the mice were treated with 20 mg/kg of Pac twice per week for the first two week and then once per week after that, For C26-A6, the mice were treated with 15 mg/kg of C26-A6 5 days per week. n=6 mice per group. Data represent mean±SEM.
FIG. 7A, Representative mice right before the treatment (week 2) and at week 10 are shown.
FIG. 7B, The BLI signal was quantified at week 2. Significance determined by one-way ANOVA analysis with Dunnett's test for multiple comparisons.
FIG. 7C, The metastasis progression of each individual is shown.
FIG. 7D, Survival rate in each group was analyzed. Significance determined by two-sided Log-rank test.
Lastly, to mimic the clinical scenario of adjuvant chemotherapy following surgical removal of the primary tumors, SCP28 mammary tumors were removed when they reached 5 mm in diameter, the mice were then randomly separated into four groups and subjected to the different treatment regimens as above. […] The mice were then treated with vehicle or paclitaxel and C26-A6 alone or in combination, and the metastasis progression was monitored by BLL.

[2] = tested on: E0771-OVA Tap1/2 KD cells; assay: E0771-OVA Tap1/2 KD cells / OT-I splenocyte co-culture; type: cell-based, mouse
Text: For FIGS. 33B-33D, E0771-OVA cells with (shTap1/2) or without (shCtrl) Tap1/2 knockdown were co-cultured with OT-I splenocytes with the ratio of 1:10 (tumor cells:splenocytes). Data represent mean±SEM. n=3 independent experiments. Significance determined by one-way ANOVA analysis with Sidak's test for multiple comparisons.
FIG. 33B, 24 hr after co-culture, tumor cells were collected for examining OVA (H-2K^b-SIINFEKL) expression.
FIG. 33C, 24 hr after co-culture, tumor cells were collected for examining MHC-I expression.
FIG. 33D, 24 hr after co-culture, splenocytes were collected for examining CD137 expression.
FIG. 33E, The same co-culture experiment as in FIG. 33B were performed. The live tumor cells were indicated by luciferase signal. The percentage of live cells were determined as normalized to the non-co-culture control. Data represent mean±SEM. n=5 independent experiments. Significance determined by one-way ANOVA analysis with Sidak's test for multiple comparisons.
MTDH-SND1 suppresses antigen presentation by reducing Tap1/2. To confirm that MTDH-SND1 drives immune evasion through suppressing the Tap1/2 pathway, antigen presentation-deficient cells were generated by knocking down Tap1/2^20. E0771-OVA cells were transduced with lentiviruses expressing Tap1/2-targeting shRNAs. […]

## COc1ccc(Cl)cc1S(=O)(=O)Nc1cccn2nc(C)nc12 [Analog C26-A6]
[1]
  hematologic, GI tract, and liver toxicity / tolerability: no significant hematologic, GI tract, and liver toxicity; also recorded: well-tolerated in vivo with minimal toxicity
4TO7 lung metastases; Pac 20 mg/kg, C26-A6 15 mg/kg 5 days per week
  metastatic growth (BLI): slowed down metastatic growth
4TO7 lung metastases; six mice per group
  metastasis shrinkage: did not result in metastasis shrinkage
[2]
  immune killing (live tumor cells): no boosting of immune killing
[2]; 24 hr co-culture
  antigen presentation and T cell activation: no such change

Source: patent publication US20240398767A1, “INHIBITORS OF THE MTDH-SND1 PROTEIN COMPLEX FOR CANCER THERAPY” (The Trustees of Princeton University, priority 2021, published 2024)
